Laboratory results from article PMC11191095, “QSAR Reveals Decreased Lipophilicity of Polar Residues Determines the Selectivity of Antimicrobial Peptide Activity” (ACS Omega, 2024).
Where a SMILES comes first, the peptide text is derived from it.

Columns and labels:
Assay in all cases: microbe, parasite or virus in culture
[1] = system: C. auris TDG 1912; format: cell-based, Candida auris; settings: C. auris TDG 1912
Outline: (§1)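 Peptides 128→2 μg/mL, 2-fold series; inoculum ~5 × 10^5 CFU/mL from overnight culture (OD600 0.01, mixed 1:1). MHB non-cation-adjusted for bacteria, RPMI 1640 + 2% glucose for fungi. 37 °C, 20 h, OD600. MIC50/MIC90 at 50%/90% inhibition; n ≥ 3.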

[2] = system: P. aeruginosa NCTC 13437; format: cell-based, Pseudomonas aeruginosa; settings: P. aeruginosa NCTC 13437 (R)
Outline: as §1

[3] = system: E. coli NCTC 12923; format: cell-based, Escherichia coli; settings: E. coli NCTC 12923 (S)
Outline: as §1

[4] = system: E. coli LEC001; format: cell-based, Escherichia coli; settings: E. coli LEC001 (R)
Outline: as §1

[5] = system: S. aureus (MRSA) 1199B; format: cell-based, Staphylococcus aureus; settings: S. aureus (MRSA) 1199B (R)
Outline: as §1

[6] = system: S. aureus (MRSA) NCTC 13616; format: cell-based, Staphylococcus aureus; settings: S. aureus (MRSA) NCTC 13616 (R)
Outline: as §1

[7] = system: S. aureus (MSSA) ATCC 9144; format: cell-based, Staphylococcus aureus; settings: S. aureus (MSSA) ATCC 9144 (S)
Outline: as §1

[8] = system: C. albicans NCPF 3281; format: cell-based; settings: C. albicans NCPF 3281
Outline: as §1

[9] = system: C. krusei NCPF 3876; format: cell-based; settings: C. krusei NCPF 3876
Outline: as §1

[10] = system: C. parapsilosis NCPF 3209; format: cell-based; settings: C. parapsilosis NCPF 3209
Outline: as §1

[11] = system: C. glabrata NCPF 8018; format: cell-based; settings: C. glabrata NCPF 8018
Outline: as §1

[12] = system: C. tropicalis NCPF 8760; format: cell-based; settings: C. tropicalis NCPF 8760
Outline: as §1

[13] = system: A. baumannii ATCC 17978; format: cell-based, Acinetobacter baumannii; settings: A. baumannii ATCC 17978 (S)
Outline: as §1

[14] = system: A. baumannii AYE; format: cell-based, Acinetobacter baumannii; settings: A. baumannii AYE (R)
Outline: as §1

[15] = system: K. pneumoniae M6; format: cell-based, Klebsiella pneumoniae; settings: K. pneumoniae M6 (S)
Outline: as §1

[16] = system: K. pneumoniae NCTC 13368; format: cell-based, Klebsiella pneumoniae; settings: K. pneumoniae NCTC 13368 (R)
Outline: as §1

[17] = MHB, 37 °C, 20 h, OD600, min. three biological repeats
[18] = MHB, ~5×10^5 CFU/mL, 37 °C, 20 h, OD600, min. three biological repeats
[19] = 50% growth inhibition, RPMI 1640 + 2% glucose, 37 °C, 20 h
[20] = 90% growth inhibition, RPMI 1640 + 2% glucose, 37 °C, 20 h

CC(C)C[C@H](NC(=O)[C@H](CCCCN)NC(=O)[C@H](CO)NC(=O)[C@H](CCCCN)NC(=O)[C@H](Cc1c[nH]c2ccccc12)NC(=O)[C@H](C)NC(=O)[C@H](CCCCN)NC(=O)[C@@H](N)CCCCN)C(=O)N[C@@H](C)C(=O)N[C@@H](CCCCN)C(=O)N[C@@H](CCCCN)C(=O)N[C@@H](CC(C)C)C(=O)N[C@@H](CCCNC(=N)N)C(=O)N[C@@H](C)C(=O)N[C@@H](CCCCN)C(=O)NCC(=O)N[C@@H](CCCCN)C(N)=O [PS-PB-14a] (H-KKAWKSKLAKKLRAKGK-NH2)
31.9 µM: Modal MIC50 ([12]; shown in µM) | Modal MIC90 ([12]; shown in µM)
> 128 µg/mL: Modal MIC50 ([1]; 50% growth inhibition, RPMI 1640 + 2% glucose, 37 °C, 20 h, OD600) | Modal MIC90 ([1]; 90% growth inhibition, RPMI 1640 + 2% glucose, 37 °C, 20 h, OD600) | Modal MIC [2, 17] | Modal MIC [3, 18] | Modal MIC [4, 17] | Modal MIC [5, 17] | Modal MIC [6, 17] | Modal MIC [7, 17] | Modal MIC50 [8, 19] | Modal MIC90 [8, 20] | Modal MIC50 [9, 19] | Modal MIC90 [9, 20] | Modal MIC50 [10, 19] | Modal MIC90 [10, 20] | Modal MIC50 [11, 19] | Modal MIC90 [11, 20] | Modal MIC [13, 17] | Modal MIC [14, 17] | Modal MIC [15, 17] | Modal MIC [16, 17]
> 63.8 µM: Modal MIC50 ([1]; shown in µM) | Modal MIC90 ([1]; shown in µM) | Modal MIC ([2]; shown in µM) | Modal MIC ([3]; shown in µM) | Modal MIC ([4]; shown in µM) | Modal MIC ([5]; shown in µM) | Modal MIC ([6]; shown in µM) | Modal MIC ([7]; shown in µM) | Modal MIC50 ([8]; shown in µM) | Modal MIC90 ([8]; shown in µM) | Modal MIC50 ([9]; shown in µM) | Modal MIC90 ([9]; shown in µM) | Modal MIC50 ([10]; shown in µM) | Modal MIC90 ([10]; shown in µM) | Modal MIC50 ([11]; shown in µM) | Modal MIC90 ([11]; shown in µM) | Modal MIC ([13]; shown in µM) | Modal MIC ([14]; shown in µM) | Modal MIC ([15]; shown in µM) | Modal MIC ([16]; shown in µM)

KCLTLRSLKKTLKFCASGRT-NH2 [X1-20a, novel amidated frog AMP derivative, Xenopus laevis]
6.9 µM: Modal MIC ([7]; shown in µM) | Modal MIC50 ([12]; shown in µM) | Modal MIC ([13]; shown in µM) | Modal MIC ([14]; shown in µM)
32 µg/mL: Modal MIC90 [12, 20] | Modal MIC [15, 17]
> 128 µg/mL: Modal MIC [2, 17] | Modal MIC [4, 17] | Modal MIC [6, 17] | Modal MIC50 [8, 19] | Modal MIC90 [8, 20] | Modal MIC50 [10, 19] | Modal MIC90 [10, 20] | Modal MIC50 [11, 19] | Modal MIC90 [11, 20]
13.8 µM: Modal MIC90 ([12]; shown in µM) | Modal MIC ([15]; shown in µM)
64 µg/mL: Modal MIC50 [9, 19] | Modal MIC90 [9, 20] | Modal MIC [16, 17]
8 µg/mL: Modal MIC [3, 18]
3.4 µM: Modal MIC ([3]; shown in µM)
16 µg/mL: Modal MIC [7, 17] | Modal MIC50 [12, 19] | Modal MIC [13, 17] | Modal MIC [14, 17]
> 55 µM: Modal MIC50 ([1]; shown in µM) | Modal MIC90 ([1]; shown in µM) | Modal MIC ([2]; shown in µM) | Modal MIC ([4]; shown in µM) | Modal MIC ([5]; shown in µM) | Modal MIC ([6]; shown in µM) | Modal MIC50 ([8]; shown in µM) | Modal MIC90 ([8]; shown in µM) | Modal MIC50 ([10]; shown in µM) | Modal MIC90 ([10]; shown in µM) | Modal MIC50 ([11]; shown in µM) | Modal MIC90 ([11]; shown in µM)
27.5 µM: Modal MIC50 ([9]; shown in µM) | Modal MIC90 ([9]; shown in µM) | Modal MIC ([16]; shown in µM)
